# Reference: publication PMC10150365 (Journal of Medicinal Chemistry, 2023)
# What was measured:
# Muscarinic M3 = biological target: T1, Muscarinic M3 (Homo sapiens, UniProt P20309); test: Cerep SafetyScreen-87; format: binding; conditions: n=2
# T1 construct: purchased Eurofins Cerep/Panlabs SafetyScreen-87
# [1] = biological target: T2, Serotonin (5-Hydroxytryptamine) 5-HT1A (Homo sapiens, UniProt P08908); test: Cerep SafetyScreen-87; format: binding; conditions: n=2
# T2 construct: purchased Eurofins Cerep/Panlabs SafetyScreen-87
# Tachykinin NK1 = biological target: T3, Tachykinin NK1 (Homo sapiens, UniProt P25103); test: Cerep SafetyScreen-87; format: binding; conditions: n=2
# T3 construct: purchased Eurofins Cerep/Panlabs SafetyScreen-87
# Adrenergic β1 = biological target: T4, Adrenergic β1 (Homo sapiens, UniProt P08588); test: Cerep SafetyScreen-87; format: binding; conditions: n=2
# T4 construct: purchased Eurofins Cerep/Panlabs SafetyScreen-87
# Endothelin ETA = biological target: T5, Endothelin ETA (Homo sapiens, UniProt P25101); test: Cerep SafetyScreen-87; format: binding; conditions: n=2
# T5 construct: purchased Eurofins Cerep/Panlabs SafetyScreen-87
# Monoamine Oxidase MAO-B = biological target: T6, Monoamine Oxidase MAO-B (Homo sapiens, UniProt P27338); test: Cerep SafetyScreen-87; format: biochemical; conditions: n=2
# T6 construct: purchased Eurofins Cerep/Panlabs SafetyScreen-87
# Progesterone PR-B = biological target: T7, Progesterone PR-B (Homo sapiens, UniProt P06401); test: Cerep SafetyScreen-87; format: binding; conditions: n=2
# T7 construct: purchased Eurofins Cerep/Panlabs SafetyScreen-87
# Chemokine CCR1 = biological target: T8, Chemokine CCR1 (Homo sapiens, UniProt P32246); test: Cerep SafetyScreen-87; format: binding; conditions: n=2
# T8 construct: purchased Eurofins Cerep/Panlabs SafetyScreen-87
# [2] = biological target: T9, Transporter, Dopamine (DAT) (Homo sapiens, UniProt Q01959); test: Cerep SafetyScreen-87; format: binding; conditions: n=2
# T9 construct: purchased Eurofins Cerep/Panlabs SafetyScreen-87
# Glucocorticoid = biological target: T10, Glucocorticoid (Homo sapiens, UniProt P04150); test: Cerep SafetyScreen-87; format: binding; conditions: n=2
# T10 construct: purchased Eurofins Cerep/Panlabs SafetyScreen-87
# [3] = biological target: T11, Platelet Activating Factor (PAF) (Homo sapiens, UniProt P25105); test: Cerep SafetyScreen-87; format: binding; conditions: n=2
# T11 construct: purchased Eurofins Cerep/Panlabs SafetyScreen-87
# Calcium Channel N-type = biological target: T12, Calcium Channel N-type (Rattus norvegicus, UniProt Q02294); test: Cerep SafetyScreen-87; format: binding; conditions: n=2
# T12 construct: purchased Eurofins Cerep/Panlabs SafetyScreen-87
# Dopamine D1 = biological target: T13, Dopamine D1 (Homo sapiens, UniProt P21728); test: Cerep SafetyScreen-87; format: binding; conditions: n=2
# T13 construct: purchased Eurofins Cerep/Panlabs SafetyScreen-87
# Melanocortin MC4 = biological target: T14, Melanocortin MC4 (Homo sapiens, UniProt P32245); test: Cerep SafetyScreen-87; format: binding; conditions: n=2
# T14 construct: purchased Eurofins Cerep/Panlabs SafetyScreen-87
# [4] = biological target: T15, Peptidase, CTSG (Cathepsin G) (Homo sapiens, UniProt P08311); test: Cerep SafetyScreen-87; format: biochemical; conditions: n=2
# T15 construct: purchased Eurofins Cerep/Panlabs SafetyScreen-87
# Dopamine D2S = biological target: T16, Dopamine D2S (Homo sapiens, UniProt P14416); test: Cerep SafetyScreen-87; format: binding; conditions: n=2
# T16 construct: purchased Eurofins Cerep/Panlabs SafetyScreen-87
# Histamine H1 = biological target: T17, Histamine H1 (Homo sapiens, UniProt P35367); test: Cerep SafetyScreen-87; format: binding; conditions: n=2
# T17 construct: purchased Eurofins Cerep/Panlabs SafetyScreen-87
# Monoamine Oxidase MAO-A = biological target: T18, Monoamine Oxidase MAO-A (Homo sapiens, UniProt P21397); test: Cerep SafetyScreen-87; format: biochemical; conditions: n=2
# T18 construct: purchased Eurofins Cerep/Panlabs SafetyScreen-87
# [5] = biological target: T19, Glutamate, Metabotropic, mGlu5 (Homo sapiens, UniProt P41594); test: Cerep SafetyScreen-87; format: binding; conditions: n=2
# T19 construct: purchased Eurofins Cerep/Panlabs SafetyScreen-87
# Cholecystokinin (CCKB) = biological target: T20, Cholecystokinin (CCKB) (Homo sapiens, UniProt P32239); test: Cerep SafetyScreen-87; format: binding; conditions: n=2
# T20 construct: purchased Eurofins Cerep/Panlabs SafetyScreen-87
# [6] = biological target: T21, Protein Tyrosine Kinase, LCK (Homo sapiens, UniProt P06239); test: Cerep SafetyScreen-87; format: biochemical; conditions: n=2
# T21 construct: purchased Eurofins Cerep/Panlabs SafetyScreen-87
# [7] = biological target: T22, Protein Tyrosine Kinase, Insulin Receptor (Homo sapiens, UniProt P06213); test: Cerep SafetyScreen-87; format: biochemical; conditions: n=2
# T22 construct: purchased Eurofins Cerep/Panlabs SafetyScreen-87
# [8] = biological target: T23, Leukotriene, Cysteinyl CysLT1 (Homo sapiens, UniProt Q9Y271); test: Cerep SafetyScreen-87; format: binding; conditions: n=2
# T23 construct: purchased Eurofins Cerep/Panlabs SafetyScreen-87
# Estrogen ERα = biological target: T24, Estrogen ERα (Homo sapiens, UniProt P03372); test: Cerep SafetyScreen-87; format: binding; conditions: n=2
# T24 construct: purchased Eurofins Cerep/Panlabs SafetyScreen-87
# Adrenergic β2 = biological target: T25, Adrenergic β2 (Homo sapiens, UniProt P07550); test: Cerep SafetyScreen-87; format: binding; conditions: n=2
# T25 construct: purchased Eurofins Cerep/Panlabs SafetyScreen-87
# Bradykinin B2 = biological target: T26, Bradykinin B2 (Homo sapiens, UniProt P30411); test: Cerep SafetyScreen-87; format: binding; conditions: n=2
# T26 construct: purchased Eurofins Cerep/Panlabs SafetyScreen-87
# Angiotensin AT1 = biological target: T27, Angiotensin AT1 (Homo sapiens, UniProt P30556); test: Cerep SafetyScreen-87; format: binding; conditions: n=2
# T27 construct: purchased Eurofins Cerep/Panlabs SafetyScreen-87
# [9] = biological target: T28, Serotonin (5-Hydroxytryptamine) 5-HT1B (Homo sapiens, UniProt P28222); test: Cerep SafetyScreen-87; format: binding; conditions: n=2
# T28 construct: purchased Eurofins Cerep/Panlabs SafetyScreen-87
# Cannabinoid CB2 = biological target: T29, Cannabinoid CB2 (Homo sapiens, UniProt P34972); test: Cerep SafetyScreen-87; format: binding; conditions: n=2
# T29 construct: purchased Eurofins Cerep/Panlabs SafetyScreen-87
# Adenosine A2A = Adenosine A2A (Homo sapiens, UniProt P29274); format: cell-based; set-up: Cerep (contract assay) test=2527; conditions: functional assay, antagonist mode; read-out: adenosine A2A antagonism IC50
# Muscarinic M1 = biological target: T30, Muscarinic M1 (Homo sapiens, UniProt P11229); test: Cerep SafetyScreen-87; format: binding; conditions: n=2
# T30 construct: purchased Eurofins Cerep/Panlabs SafetyScreen-87
# Dopamine D2L = biological target: T31, Dopamine D2L (Homo sapiens, UniProt P14416); test: Cerep SafetyScreen-87; format: binding; conditions: n=2
# T31 construct: purchased Eurofins Cerep/Panlabs SafetyScreen-87
# Cyclooxigenase COX-2 = biological target: T32, Cyclooxigenase COX-2 (Homo sapiens, UniProt P35354); test: Cerep SafetyScreen-87; format: biochemical; conditions: n=2
# T32 construct: purchased Eurofins Cerep/Panlabs SafetyScreen-87
# [10] = biological target: T33, Serotonin (5-Hydroxytryptamine) 5-HT2C (Homo sapiens, UniProt P28335); test: Cerep SafetyScreen-87; format: binding; conditions: n=2
# T33 construct: purchased Eurofins Cerep/Panlabs SafetyScreen-87
# [11] = biological target: T34, Cholinesterase, Acetyl, ACES (Homo sapiens, UniProt P22303); test: Cerep SafetyScreen-87; format: biochemical; conditions: n=2
# T34 construct: purchased Eurofins Cerep/Panlabs SafetyScreen-87
# Opiate δ1 (OP1, DOP) = biological target: T35, Opiate δ1 (OP1, DOP) (Homo sapiens, UniProt P41143); test: Cerep SafetyScreen-87; format: binding; conditions: n=2
# T35 construct: purchased Eurofins Cerep/Panlabs SafetyScreen-87
# Adrenergic α1D = biological target: T36, Adrenergic α1D (Homo sapiens, UniProt P25100); test: Cerep SafetyScreen-87; format: binding; conditions: n=2
# T36 construct: purchased Eurofins Cerep/Panlabs SafetyScreen-87
# Adrenergic α1A = biological target: T37, Adrenergic α1A (Rattus norvegicus, UniProt P43140); test: Cerep SafetyScreen-87; format: binding; conditions: n=2
# T37 construct: purchased Eurofins Cerep/Panlabs SafetyScreen-87
# Cannabinoid CB1 = biological target: T38, Cannabinoid CB1 (Homo sapiens, UniProt P21554); test: Cerep SafetyScreen-87; format: binding; conditions: n=2
# T38 construct: purchased Eurofins Cerep/Panlabs SafetyScreen-87
# PPARγ = biological target: T39, PPARγ (Homo sapiens, UniProt P37231); test: Cerep SafetyScreen-87; format: binding; conditions: n=2
# T39 construct: purchased Eurofins Cerep/Panlabs SafetyScreen-87
# Adrenergic α2B = biological target: T40, Adrenergic α2B (Homo sapiens, UniProt P18089); test: Cerep SafetyScreen-87; format: binding; conditions: n=2
# T40 construct: purchased Eurofins Cerep/Panlabs SafetyScreen-87
# T40 sequence (P18089 whole entry): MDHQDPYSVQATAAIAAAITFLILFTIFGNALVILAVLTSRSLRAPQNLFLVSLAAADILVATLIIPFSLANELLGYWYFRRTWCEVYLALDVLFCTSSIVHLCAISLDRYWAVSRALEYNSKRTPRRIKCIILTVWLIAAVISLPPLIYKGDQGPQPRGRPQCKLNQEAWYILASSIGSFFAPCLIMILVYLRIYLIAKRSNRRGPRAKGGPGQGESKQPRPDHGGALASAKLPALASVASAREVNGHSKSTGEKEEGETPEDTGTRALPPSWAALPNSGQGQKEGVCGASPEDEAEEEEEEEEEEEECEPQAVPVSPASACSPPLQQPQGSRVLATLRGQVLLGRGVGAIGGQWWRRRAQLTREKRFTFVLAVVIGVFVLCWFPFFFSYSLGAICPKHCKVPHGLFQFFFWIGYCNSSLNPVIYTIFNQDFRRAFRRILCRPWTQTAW
# T8 sequence (P32246 whole entry): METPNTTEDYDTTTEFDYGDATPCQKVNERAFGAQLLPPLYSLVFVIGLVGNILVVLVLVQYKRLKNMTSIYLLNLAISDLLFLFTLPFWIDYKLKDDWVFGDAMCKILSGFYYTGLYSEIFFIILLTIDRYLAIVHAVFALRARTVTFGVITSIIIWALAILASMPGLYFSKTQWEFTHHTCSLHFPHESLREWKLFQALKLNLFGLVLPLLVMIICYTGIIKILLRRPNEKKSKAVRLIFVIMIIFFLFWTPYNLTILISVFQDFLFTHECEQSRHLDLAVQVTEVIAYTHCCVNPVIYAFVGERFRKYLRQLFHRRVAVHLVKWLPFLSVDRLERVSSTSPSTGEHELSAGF
# T25 sequence (P07550 whole entry): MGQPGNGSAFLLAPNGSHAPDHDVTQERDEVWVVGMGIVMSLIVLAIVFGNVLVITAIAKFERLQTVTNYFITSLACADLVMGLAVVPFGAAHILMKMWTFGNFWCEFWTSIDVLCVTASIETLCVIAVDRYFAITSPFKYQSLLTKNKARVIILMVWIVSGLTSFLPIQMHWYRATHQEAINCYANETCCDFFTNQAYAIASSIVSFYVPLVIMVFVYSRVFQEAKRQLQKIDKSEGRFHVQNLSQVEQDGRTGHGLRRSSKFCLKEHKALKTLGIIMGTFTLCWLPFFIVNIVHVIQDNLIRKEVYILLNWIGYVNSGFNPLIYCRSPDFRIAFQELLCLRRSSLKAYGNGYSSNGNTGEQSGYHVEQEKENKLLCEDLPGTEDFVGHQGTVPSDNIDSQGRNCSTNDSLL
# T22 sequence (P06213 28-1382): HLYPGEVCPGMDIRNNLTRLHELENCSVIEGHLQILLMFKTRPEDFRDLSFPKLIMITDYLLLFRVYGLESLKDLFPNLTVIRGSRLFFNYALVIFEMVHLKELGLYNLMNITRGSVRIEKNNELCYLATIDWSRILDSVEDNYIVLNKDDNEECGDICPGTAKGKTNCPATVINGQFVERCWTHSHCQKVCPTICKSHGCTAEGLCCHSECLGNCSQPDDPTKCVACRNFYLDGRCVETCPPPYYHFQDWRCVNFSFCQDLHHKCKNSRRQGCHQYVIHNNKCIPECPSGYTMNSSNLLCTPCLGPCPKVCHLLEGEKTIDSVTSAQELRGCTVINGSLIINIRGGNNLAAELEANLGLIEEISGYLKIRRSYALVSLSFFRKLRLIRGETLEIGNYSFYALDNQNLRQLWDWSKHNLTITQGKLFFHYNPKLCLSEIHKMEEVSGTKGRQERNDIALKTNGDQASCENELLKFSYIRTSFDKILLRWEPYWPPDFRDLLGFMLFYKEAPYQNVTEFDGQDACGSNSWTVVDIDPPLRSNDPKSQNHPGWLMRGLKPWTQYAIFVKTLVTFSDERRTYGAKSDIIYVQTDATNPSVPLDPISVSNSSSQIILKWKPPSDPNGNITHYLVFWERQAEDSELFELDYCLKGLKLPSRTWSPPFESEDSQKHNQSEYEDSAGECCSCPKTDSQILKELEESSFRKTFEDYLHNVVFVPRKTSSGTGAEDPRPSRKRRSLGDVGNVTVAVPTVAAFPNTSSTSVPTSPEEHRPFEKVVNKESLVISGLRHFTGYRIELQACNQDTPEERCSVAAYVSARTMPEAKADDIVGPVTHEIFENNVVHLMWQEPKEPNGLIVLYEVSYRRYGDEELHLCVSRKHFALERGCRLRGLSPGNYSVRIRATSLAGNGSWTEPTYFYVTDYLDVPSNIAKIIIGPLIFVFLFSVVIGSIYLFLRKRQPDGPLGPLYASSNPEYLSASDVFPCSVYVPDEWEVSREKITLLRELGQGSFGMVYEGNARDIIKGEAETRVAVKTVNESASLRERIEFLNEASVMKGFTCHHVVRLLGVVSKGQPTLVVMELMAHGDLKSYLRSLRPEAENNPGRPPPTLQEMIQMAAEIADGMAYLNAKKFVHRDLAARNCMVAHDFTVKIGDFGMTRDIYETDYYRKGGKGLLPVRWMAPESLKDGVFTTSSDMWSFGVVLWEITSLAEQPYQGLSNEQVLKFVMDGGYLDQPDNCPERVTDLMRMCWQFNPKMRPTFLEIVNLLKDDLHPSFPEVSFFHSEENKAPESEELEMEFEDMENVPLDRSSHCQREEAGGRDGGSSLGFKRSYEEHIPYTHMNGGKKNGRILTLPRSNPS
# T16 sequence (P14416 1-414 isoform P14416-2): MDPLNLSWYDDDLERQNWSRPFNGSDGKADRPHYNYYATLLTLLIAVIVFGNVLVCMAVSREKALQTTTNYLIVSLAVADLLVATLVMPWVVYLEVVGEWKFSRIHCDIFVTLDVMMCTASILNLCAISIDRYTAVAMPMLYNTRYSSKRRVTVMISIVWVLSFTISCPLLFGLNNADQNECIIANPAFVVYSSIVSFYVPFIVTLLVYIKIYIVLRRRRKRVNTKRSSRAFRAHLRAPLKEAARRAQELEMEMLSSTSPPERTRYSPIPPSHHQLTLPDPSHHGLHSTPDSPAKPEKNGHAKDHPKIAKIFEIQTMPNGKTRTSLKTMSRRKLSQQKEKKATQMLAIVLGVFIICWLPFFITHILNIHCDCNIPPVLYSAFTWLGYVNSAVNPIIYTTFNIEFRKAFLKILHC
# T35 sequence (P41143 whole entry): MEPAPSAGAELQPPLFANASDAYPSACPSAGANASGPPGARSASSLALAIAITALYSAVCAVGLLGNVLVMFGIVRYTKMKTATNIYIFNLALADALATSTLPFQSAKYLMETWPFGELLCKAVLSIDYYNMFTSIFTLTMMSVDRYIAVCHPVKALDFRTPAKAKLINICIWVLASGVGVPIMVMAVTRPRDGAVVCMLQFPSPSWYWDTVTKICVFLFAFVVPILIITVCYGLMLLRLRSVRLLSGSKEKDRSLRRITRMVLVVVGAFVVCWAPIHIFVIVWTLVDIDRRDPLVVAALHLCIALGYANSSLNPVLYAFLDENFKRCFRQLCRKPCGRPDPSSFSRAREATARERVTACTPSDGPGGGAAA
# T34 sequence (P22303 32-614): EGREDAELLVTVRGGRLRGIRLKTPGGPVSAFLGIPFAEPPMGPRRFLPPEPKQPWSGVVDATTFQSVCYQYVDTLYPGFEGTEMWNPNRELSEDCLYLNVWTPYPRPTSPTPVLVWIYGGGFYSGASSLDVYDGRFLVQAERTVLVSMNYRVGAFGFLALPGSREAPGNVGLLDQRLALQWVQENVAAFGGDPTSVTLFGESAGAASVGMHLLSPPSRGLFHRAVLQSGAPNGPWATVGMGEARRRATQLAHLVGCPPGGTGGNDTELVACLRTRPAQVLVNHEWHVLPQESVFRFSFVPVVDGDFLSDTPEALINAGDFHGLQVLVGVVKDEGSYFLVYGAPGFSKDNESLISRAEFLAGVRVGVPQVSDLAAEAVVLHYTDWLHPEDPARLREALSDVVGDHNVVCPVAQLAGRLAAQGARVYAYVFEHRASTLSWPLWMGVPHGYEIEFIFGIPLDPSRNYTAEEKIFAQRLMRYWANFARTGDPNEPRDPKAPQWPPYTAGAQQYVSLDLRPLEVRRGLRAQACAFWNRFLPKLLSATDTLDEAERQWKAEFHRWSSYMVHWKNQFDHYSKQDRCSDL
# T15 sequence (P08311 21-255): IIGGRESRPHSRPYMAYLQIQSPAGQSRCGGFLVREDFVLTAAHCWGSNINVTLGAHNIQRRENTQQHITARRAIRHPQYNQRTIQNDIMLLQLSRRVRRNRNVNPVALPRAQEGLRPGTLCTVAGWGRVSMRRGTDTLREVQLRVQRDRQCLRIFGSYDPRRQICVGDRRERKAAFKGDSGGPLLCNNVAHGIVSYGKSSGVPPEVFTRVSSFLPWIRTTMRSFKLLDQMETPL
# T39 sequence (P37231 whole entry): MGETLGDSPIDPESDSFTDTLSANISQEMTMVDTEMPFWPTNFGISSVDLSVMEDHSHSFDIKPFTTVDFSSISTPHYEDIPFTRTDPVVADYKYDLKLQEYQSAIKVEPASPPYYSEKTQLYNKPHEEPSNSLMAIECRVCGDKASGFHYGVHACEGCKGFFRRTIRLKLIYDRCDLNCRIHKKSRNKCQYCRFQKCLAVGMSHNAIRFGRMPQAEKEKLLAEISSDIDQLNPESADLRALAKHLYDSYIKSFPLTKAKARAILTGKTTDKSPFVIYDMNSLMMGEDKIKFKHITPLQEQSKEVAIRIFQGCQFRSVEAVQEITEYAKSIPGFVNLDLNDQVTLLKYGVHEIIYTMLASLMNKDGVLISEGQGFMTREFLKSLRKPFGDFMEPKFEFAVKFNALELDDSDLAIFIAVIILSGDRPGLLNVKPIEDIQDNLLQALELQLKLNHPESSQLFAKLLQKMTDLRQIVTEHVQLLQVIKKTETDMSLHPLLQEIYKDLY
structure (smiles),measurement,setting,value
"CCN1CCN(Cc2ccc3cc(C(=O)Nc4cc(NC(=O)c5ccc6c(c5)OCCO6)ccc4F)ccc3n2)CC1 [Compound 22, N-(5-(2,3-Dihydrobenzo[b][1,4]dioxine-6-carboxamido)-2-fluorophenyl)-2-((4-ethylpiperazin-1-yl)methyl)quinoline-6-carboxamide]",inhibition at 10 µM,Muscarinic M3,30%
same,inhibition at 10 µM,[1],4%
same,inhibition at 10 µM,Tachykinin NK1,14%
same,inhibition at 10 µM,Adrenergic β1,4%
same,inhibition at 10 µM,Endothelin ETA,-2%
same,inhibition at 10 µM,Monoamine Oxidase MAO-B,36%
same,inhibition at 10 µM,Progesterone PR-B,5%
same,inhibition at 10 µM,Chemokine CCR1,2%
same,inhibition at 10 µM,[2],38%
same,inhibition at 10 µM,Glucocorticoid,9%
same,inhibition at 10 µM,Calcium Channel N-type,9%
same,inhibition at 10 µM,Dopamine D1,41%
same,inhibition at 10 µM,Melanocortin MC4,2%
same,inhibition at 10 µM,[4],1%
same,inhibition at 10 µM,Dopamine D2S,5%
same,inhibition at 10 µM,Histamine H1,36%
same,inhibition at 10 µM,Monoamine Oxidase MAO-A,77%
same,inhibition at 10 µM,[5],-2%
same,inhibition at 10 µM,Cholecystokinin (CCKB),-4%
same,inhibition at 10 µM,[6],-8%
same,inhibition at 10 µM,[7],-7%
same,inhibition at 10 µM,[8],7%
same,inhibition at 10 µM,Estrogen ERα,-1%
same,inhibition at 10 µM,Adrenergic β2,12%
same,inhibition at 10 µM,Bradykinin B2,0%
same,inhibition at 10 µM,Angiotensin AT1,1%
same,inhibition at 10 µM,[9],43%
same,inhibition at 10 µM,Cannabinoid CB2,79%
same,IC50,Adenosine A2A,2000 nM
same,inhibition at 10 µM,Muscarinic M1,43%
same,inhibition at 10 µM,Dopamine D2L,20%
same,inhibition at 10 µM,Cyclooxigenase COX-2,-5%
same,inhibition at 10 µM,[10],55%
same,inhibition at 10 µM,[11],2%
same,inhibition at 10 µM,"Opiate δ1 (OP1, DOP)",9%
same,inhibition at 10 µM,Adrenergic α1D,25%
same,inhibition at 10 µM,Adrenergic α1A,38%
same,inhibition at 10 µM,Cannabinoid CB1,9%
same,inhibition at 10 µM,PPARγ,11%
same,inhibition at 10 µM,Adrenergic α2B,79%
